This is an account of results in patent publication US20220274991A1, “SMALL MOLECULE INHIBITORS OF KU70/80 AND USES THEREOF” (Arizona Board of Regents on Behalf of the University of …, priority 2019, published 2022).

For the experiment, the target named is T1, Ku70/80 (Homo sapiens, UniProt P12956+P13010).
T1 construct: purchased AMRI
T1 sequence (P12956 whole entry): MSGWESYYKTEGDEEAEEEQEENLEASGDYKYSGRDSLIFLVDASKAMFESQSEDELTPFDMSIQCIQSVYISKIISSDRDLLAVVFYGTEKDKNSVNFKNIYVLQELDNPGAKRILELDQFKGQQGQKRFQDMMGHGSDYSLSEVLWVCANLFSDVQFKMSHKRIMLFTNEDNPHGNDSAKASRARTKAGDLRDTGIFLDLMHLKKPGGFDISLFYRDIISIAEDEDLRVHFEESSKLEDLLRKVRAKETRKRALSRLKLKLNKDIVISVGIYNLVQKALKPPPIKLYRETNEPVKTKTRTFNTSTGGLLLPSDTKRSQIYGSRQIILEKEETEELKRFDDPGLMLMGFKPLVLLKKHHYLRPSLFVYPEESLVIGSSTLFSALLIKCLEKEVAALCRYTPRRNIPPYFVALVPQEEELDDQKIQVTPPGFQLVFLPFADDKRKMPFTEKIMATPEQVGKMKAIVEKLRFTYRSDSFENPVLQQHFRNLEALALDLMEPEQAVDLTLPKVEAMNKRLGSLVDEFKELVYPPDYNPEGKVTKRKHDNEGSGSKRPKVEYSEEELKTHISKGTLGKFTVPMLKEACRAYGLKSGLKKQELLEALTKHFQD
T1 sequence (P13010 whole entry): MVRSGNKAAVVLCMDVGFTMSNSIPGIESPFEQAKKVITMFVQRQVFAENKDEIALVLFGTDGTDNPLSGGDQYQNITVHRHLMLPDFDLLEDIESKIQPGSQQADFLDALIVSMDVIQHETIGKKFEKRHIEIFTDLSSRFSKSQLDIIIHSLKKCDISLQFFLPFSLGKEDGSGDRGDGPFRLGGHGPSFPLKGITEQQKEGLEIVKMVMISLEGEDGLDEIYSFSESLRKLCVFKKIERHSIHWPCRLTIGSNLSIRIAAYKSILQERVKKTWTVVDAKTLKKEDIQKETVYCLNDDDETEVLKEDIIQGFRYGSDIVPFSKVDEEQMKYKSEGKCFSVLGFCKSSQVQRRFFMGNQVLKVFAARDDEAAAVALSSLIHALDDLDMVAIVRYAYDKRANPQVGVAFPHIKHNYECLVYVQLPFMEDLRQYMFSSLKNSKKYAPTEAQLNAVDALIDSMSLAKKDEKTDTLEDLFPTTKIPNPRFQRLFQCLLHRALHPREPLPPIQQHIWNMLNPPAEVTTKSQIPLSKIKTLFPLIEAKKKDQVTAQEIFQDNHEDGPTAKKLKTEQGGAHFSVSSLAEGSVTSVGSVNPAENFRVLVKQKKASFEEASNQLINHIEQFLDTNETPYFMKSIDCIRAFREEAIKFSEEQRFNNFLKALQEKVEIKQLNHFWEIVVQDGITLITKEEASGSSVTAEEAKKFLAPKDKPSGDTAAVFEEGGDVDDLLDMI
Nature of the experiment: EMSA IC50 (AMRI Ku70/80). It is filed as binding. The following applies: Hill equation fitted. For orientation: In EMSA bound probe runs differently from free probe, usually more slowly.
As for `NS(=O)(=O)c1ccc(CCNc2ncc3c(=O)n(-c4cccc(F)c4)c(=O)[nH]c3n2)cc1`, the midpoint of inhibition, the IC50, lay at 50 µM. For the compound `O=C(O)c1ccc(CNc2ncc3c(=O)n(-c4cccc(F)c4)c(=O)[nH]c3n2)cc1`, the IC50 (commonly the midpoint of a concentration-inhibition curve) was determined as 196 µM. For `O=c1[nH]c2nc(NCCc3cccc(F)c3)ncc2c(=O)n1-c1cccnc1` the value was 245 µM.

`O=c1[nH]c2nc(NCCc3cccnc3)ncc2c(=O)n1-c1cccc(F)c1` yielded an IC50 of 40 µM.

For the compound `O=c1[nH]c2nc(NCCc3cccc(F)c3)ncc2c(=O)n1-c1ccccn1`, the concentration for half-maximal inhibition (IC50) is 58 µM. `O=c1[nH]c2nc(NCCc3ccncc3)ncc2c(=O)n1-c1cccc(F)c1` registered an IC50 of 18 µM. In the case of `O=c1[nH]c2nc(NCCc3ccccn3)ncc2c(=O)n1-c1cccc(F)c1`, the IC50 worked out at 18 µM. For `O=c1[nH]c2nc(NCCc3ccc4c(c3)OCO4)ncc2c(=O)n1-c1cccc(F)c1` the value was 9.1 µM; for `O=c1[nH]c2nc(NCCc3ccc4c(c3)OC(F)(F)O4)ncc2c(=O)n1-c1cccc(F)c1`, 20 µM; for `O=c1[nH]c2nc(NCCc3ccc4c(c3)OCCO4)ncc2c(=O)n1-c1cccc(F)c1`, 20 µM. In turn, `O=c1[nH]c2nc(NCCc3ccccc3)ncc2c(=O)n1-c1cccc(F)c1` showed a concentration for half-maximal inhibition (IC50) of 28 µM.

`CN(CCc1cccc(F)c1)c1ncc2c(=O)n(-c3cccc(F)c3)c(=O)[nH]c2n1` had an IC50 of 142 µM.

For `COc1ccc(CCN(C)c2ncc3c(=O)n(-c4cccc(F)c4)c(=O)[nH]c3n2)cc1OC`, the IC50 turned out to be 184 µM. For `COc1ccc(CCNc2ncc3c(=O)n(-c4cccc(F)c4)c(=O)[nH]c3n2)cc1F` the value was 54 µM.

For the compound `O=c1[nH]c2nc(NCCc3ccc(O)c(F)c3)ncc2c(=O)n1-c1cccc(F)c1`, the IC50 was 101 µM.

Regarding `O=c1[nH]c2nc(NCCc3ccc(F)c(F)c3)ncc2c(=O)n1-c1cccc(F)c1`, 33 µM corresponded to half-maximal inhibition (IC50). As for `O=c1[nH]c2nc(NCC3CCCc4c(F)cccc43)ncc2c(=O)n1-c1cccc(F)c1` (stereo not drawn), the IC50 came to 20 µM. `O=c1[nH]c2nc(NCc3cccc4c(F)cccc34)ncc2c(=O)n1-c1cccc(F)c1` gave an IC50 of 21 µM. The compound `O=c1[nH]c2nc(N3CCc4cc(F)ccc4C3)ncc2c(=O)n1-c1cccc(F)c1` returned an IC50 of 34 µM. `O=c1[nH]c2nc(NCCc3cccc(F)c3)ncc2c(=O)n1-c1cc(F)ccc1F` had an IC50 of 249 µM. The compound `COc1c(F)cccc1-n1c(=O)[nH]c2nc(NCCc3cccc(F)c3)ncc2c1=O` came in with an IC50 of 27 µM. Regarding `COc1ccc(-n2c(=O)[nH]c3nc(NCCc4cccc(F)c4)ncc3c2=O)cc1F`, the 50% inhibitory concentration (IC50) was found to be 11 µM. `CCOC(=O)c1cccc(-n2c(=O)[nH]c3nc(NCCc4cccc(F)c4)ncc3c2=O)c1`: half-maximal inhibition (IC50) required 11 µM. For `COc1ccc(-n2c(=O)[nH]c3nc(NCCc4cccc(F)c4)ncc3c2=O)cc1OC` the value was 22 µM. In the case of `O=c1[nH]c2nc(NCCc3cccc(F)c3)ncc2c(=O)n1Cc1ccccc1F`, the IC50 came out at 10 µM. `O=c1[nH]c2nc(NCCc3cccc(F)c3)ncc2c(=O)n1-c1nccs1` gave an IC50 of 43 µM. For `O=c1[nH]c2nc(NCCc3cccc(F)c3)ncc2c(=O)n1CC1CCNCC1` the value was 45 µM; for `CC(C)Cn1c(=O)[nH]c2nc(NCCc3cccc(F)c3)ncc2c1=O`, 5.3 µM; for `O=c1[nH]c2nc(NCCc3cccc(F)c3)ncc2c(=O)n1CCO`, 8.8 µM.

Take `NS(=O)(=O)c1ccc(-n2c(=O)[nH]c3nc(NCCc4cccc(F)c4)ncc3c2=O)cc1`: inhibition was half-maximal at 6.9 µM (IC50). `O=c1[nH]c2nc(NCCc3cccc(F)c3)ncc2c(=O)n1-c1ccc(N2CCOCC2)c(F)c1` showed an IC50 of 6.9 µM. As to `O=c1[nH]c2nc(NCCc3cccc(F)c3)ncc2c(=O)n1-c1ccc(Br)cc1`, the IC50 amounted to 7.6 µM. For `CSc1ncc2c(=O)n(-c3ccc(Br)cc3)c(=O)[nH]c2n1` the value was 20 µM.
